Results taken from ChEMBL document CHEMBL3526061, “Glucuronidation of edaravone by human liver and kidney microsomes: biphasic kinetics and identification of UGT1A9 as the major UDP-glucuronosyltransferase isoform” (Drug Metab Dispos, 2012).

Experiments:
[1] = target: T1, UDP-glucuronosyltransferase 1A6 (Homo sapiens, UniProt P19224); assay: Activity of human recombinant UGT1A6 expressed in insect cells assessed as enzyme mediated glucuronidation at 12.5 uM by LC-MS/MS method; format: ADME
T1 sequence (P19224 whole entry): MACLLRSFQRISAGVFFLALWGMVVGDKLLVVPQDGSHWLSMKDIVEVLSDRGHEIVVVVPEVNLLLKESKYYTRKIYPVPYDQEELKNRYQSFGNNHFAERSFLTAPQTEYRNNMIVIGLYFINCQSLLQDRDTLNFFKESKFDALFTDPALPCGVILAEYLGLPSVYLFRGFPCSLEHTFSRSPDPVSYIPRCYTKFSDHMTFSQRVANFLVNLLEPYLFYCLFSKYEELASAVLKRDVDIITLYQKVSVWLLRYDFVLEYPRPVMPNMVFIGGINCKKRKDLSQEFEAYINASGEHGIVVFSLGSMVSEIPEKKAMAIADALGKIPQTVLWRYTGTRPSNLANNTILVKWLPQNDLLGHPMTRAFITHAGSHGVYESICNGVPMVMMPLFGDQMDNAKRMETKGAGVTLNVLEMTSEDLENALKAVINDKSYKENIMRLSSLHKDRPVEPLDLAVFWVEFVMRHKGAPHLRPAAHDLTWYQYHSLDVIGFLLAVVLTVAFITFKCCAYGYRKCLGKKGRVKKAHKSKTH

[2] = target: T2, UDP-glucuronosyltransferase 1A8 (Homo sapiens, UniProt Q9HAW9); assay: Activity of human recombinant UGT1A8 expressed in insect cells assessed as enzyme mediated glucuronidation at 12.5 uM by LC-MS/MS method; format: ADME
T2 sequence (Q9HAW9 whole entry): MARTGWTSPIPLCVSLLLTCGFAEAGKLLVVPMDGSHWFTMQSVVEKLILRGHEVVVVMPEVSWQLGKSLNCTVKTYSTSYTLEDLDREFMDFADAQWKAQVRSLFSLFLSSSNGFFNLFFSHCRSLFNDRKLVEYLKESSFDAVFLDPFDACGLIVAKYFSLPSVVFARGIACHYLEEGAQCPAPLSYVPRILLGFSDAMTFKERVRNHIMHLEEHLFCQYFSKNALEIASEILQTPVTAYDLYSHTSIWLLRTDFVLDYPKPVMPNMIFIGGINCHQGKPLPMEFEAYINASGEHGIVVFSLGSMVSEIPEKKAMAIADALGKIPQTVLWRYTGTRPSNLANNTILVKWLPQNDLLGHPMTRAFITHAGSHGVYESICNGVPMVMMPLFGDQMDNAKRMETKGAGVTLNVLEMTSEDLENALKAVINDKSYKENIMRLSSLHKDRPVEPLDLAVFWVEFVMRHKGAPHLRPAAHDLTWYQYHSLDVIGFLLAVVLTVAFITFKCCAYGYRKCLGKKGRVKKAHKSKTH

[3] = target: T3, UDP-glucuronosyltransferase 2B17 (Homo sapiens, UniProt O75795); assay: Activity of human recombinant UGT2B17 expressed in insect cells assessed as enzyme mediated glucuronidation in presence of 5 to 35 uM androsterone by LC-MS/MS method; format: ADME
T3 sequence (O75795 whole entry): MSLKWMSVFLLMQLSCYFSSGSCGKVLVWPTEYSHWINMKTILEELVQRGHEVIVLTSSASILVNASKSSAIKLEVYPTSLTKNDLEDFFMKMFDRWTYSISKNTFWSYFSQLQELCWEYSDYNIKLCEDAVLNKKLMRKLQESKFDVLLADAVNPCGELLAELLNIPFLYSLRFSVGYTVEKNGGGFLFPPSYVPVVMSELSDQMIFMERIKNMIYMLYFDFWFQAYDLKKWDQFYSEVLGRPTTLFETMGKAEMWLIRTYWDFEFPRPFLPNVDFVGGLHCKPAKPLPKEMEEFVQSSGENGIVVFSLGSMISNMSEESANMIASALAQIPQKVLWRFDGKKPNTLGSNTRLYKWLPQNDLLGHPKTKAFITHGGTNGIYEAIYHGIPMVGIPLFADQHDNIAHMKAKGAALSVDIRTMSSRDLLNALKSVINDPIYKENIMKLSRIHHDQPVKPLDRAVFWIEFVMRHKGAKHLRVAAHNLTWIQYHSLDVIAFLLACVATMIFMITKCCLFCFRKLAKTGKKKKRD

[4] = system: Liver microsome; assay: Drug metabolism in human liver microsomes assessed as drug glucuronidation in presence of 5 to 35 uM androsterone by LC-MS/MS method; format: ADME
[5] = Drug metabolism in human kidney microsomes assessed as drug glucuronidation in absence of BSA by LC-MS/MS method; format: ADME
[6] = Drug metabolism in human kidney microsomes assessed as intrinsic clearance for drug glucuronidation per mg tissue in absence of BSA by LC-MS/MS method; format: ADME
[7] = Drug metabolism in human kidney microsomes assessed as drug glucuronidation in presence of BSA by LC-MS/MS method; format: ADME
[8] = Drug metabolism in human kidney microsomes assessed as intrinsic clearance for drug glucuronidation per mg tissue in presence of BSA by LC-MS/MS method; format: ADME
[9] = Cmax in human at 0.5 mg/kg; format: ADME, organism-based; set-up: dose 0.5 mg/kg; conditions: in vivo
[10] = system: Liver microsome; assay: Drug metabolism in human liver microsomes assessed as drug glucuronidation per mg tissue in absence of BSA by LC-MS/MS method; format: ADME
[11] = system: Liver microsome; assay: Drug metabolism in human liver microsomes assessed as drug glucuronidation per mg tissue in presence of BSA by LC-MS/MS method; format: ADME
[12] = target: T4, UDP-glucuronosyltransferase 2B4 (Homo sapiens, UniProt P06133); assay: Activity of human recombinant UGT2B4 expressed in insect cells assessed as enzyme mediated glucuronidation at 500 uM by LC-MS/MS method; format: ADME
T4 sequence (P06133 whole entry): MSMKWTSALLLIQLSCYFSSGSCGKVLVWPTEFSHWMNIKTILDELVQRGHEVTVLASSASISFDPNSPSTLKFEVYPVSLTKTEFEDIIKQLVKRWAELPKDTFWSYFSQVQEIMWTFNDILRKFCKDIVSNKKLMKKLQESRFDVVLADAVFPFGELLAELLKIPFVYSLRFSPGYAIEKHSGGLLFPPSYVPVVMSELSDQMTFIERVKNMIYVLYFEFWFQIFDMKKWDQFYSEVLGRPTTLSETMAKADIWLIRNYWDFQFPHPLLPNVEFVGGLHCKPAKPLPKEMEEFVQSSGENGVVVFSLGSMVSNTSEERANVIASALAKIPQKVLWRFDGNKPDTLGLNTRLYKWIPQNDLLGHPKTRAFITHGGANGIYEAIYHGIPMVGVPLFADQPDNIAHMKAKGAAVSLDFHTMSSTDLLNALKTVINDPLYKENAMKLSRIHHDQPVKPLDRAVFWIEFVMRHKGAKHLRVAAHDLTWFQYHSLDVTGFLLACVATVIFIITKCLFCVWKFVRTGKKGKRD

Drug metabolism [1]: metabolite_detected
Drug metabolism [2]: metabolite_detected
Drug metabolism [3]: metabolite_not_detected
Drug metabolism [4]: metabolite_detected
Km ([5]; read-out: KmH): 7.4 µM
Km ([5]; read-out: KmL): 1360 µM
CL(high) [6]: 45.3 µL/min/mg
CL(low) [6]: 1.8 µL/min/mg
Km ([7]; read-out: KmH): 8.7 µM
Km ([7]; read-out: KmL): 1470 µM
CL(high) [8]: 78.5 µL/min/mg
CL(low) [8]: 3.6 µL/min/mg
Cmax [9]: 6 µM
VmaxH [10]: 309.4 pmol/min/g
VmaxL [10]: 7429 pmol/min/g
VmaxH [11]: 137.9 pmol/min/g
VmaxL [11]: 4904 pmol/min/g
Drug metabolism [12]: metabolite_detected
SMILES: CC1=NN(c2ccccc2)C(=O)C1 [EDARAVONE]
